Laboratory results published in ChEMBL document CHEMBL6153157, “Novel 3-Aminothieno[2,3-b]pyridine-2-carboxamides with Activity against Mycobacterium tuberculosis” (ACS Med Chem Lett, 2025).

Key:
[1] = test system: Mycobacterium tuberculosis; experiment: Antibacterial activity against wild type Mycobacterium tuberculosis H37Rv-LP DREAM8 strain expressing codon-optimized DsRed assessed growth inhibition incubated for 5 days by fluorescence spectrophotometric assay; assay type: functional; settings: H37Rv-LP DREAM8, 120 h, time 5 day
[2] = test system: Mycobacterium tuberculosis; experiment: Antibacterial activity against Mycobacterium tuberculosis LepB-UE strain under expressing signal peptidase LepB assessed growth inhibition incubated for 5 days by fluorescence spectrophotometric assay; assay type: functional; settings: 120 h, time 5 day
[3] = Cytotoxicity against human HepG2 cells assessed as cell growth inhibition incubated for 3 days by CellTiter-Glo reagent-based luminescence assay; assay type: toxicity
[4] = Selectivity index, ratio of IC50 for cytotoxicity against human HepG2 cells to IC90 for antibacterial activity against wild type Mycobacterium tuberculosis H37Rv-LP DREAM8 strain expressing codon-optimized DsRed; assay type: toxicity, cell-based

Row | Structure (SMILES) | IC90 [1] [µM] | IC90 [2] [nM] | IC50 at 3 days [3] [µM] | selectivity ratio [4]
1 | COc1ccc(-c2cc(C(F)(F)F)c3c(N)c(C(=O)NC(C)c4ccccc4)sc3n2)cn1 (stereo not given) | 1.2 | 410 | 19 | 
2 | COc1ccc(-c2cc(C(F)(F)F)c3c(N)c(C(=O)NCC45CC6CC(CC(C6)C4)C5)sc3n2)cc1 | 1.4 |  | > 100 | < 71
3 | COc1ccc(-c2cc(C(F)(F)F)c3c(N)c(C(=O)NCCc4ccccc4)sc3n2)cc1 | > 100 |  | 23 | < 1
4 | COc1ccc(-c2cc(C(F)(F)F)c3c(N)c(C(=O)N4CC(OC)C4)sc3n2)cc1 | > 100 |  | 50 | < 1
5 | COc1ccc(-c2cc(C(F)(F)F)c3c(N)c(C(=O)NC45CC6CC(CC(O)(C6)C4)C5)sc3n2)cc1 | 7.5 |  | 19 | 3
